Measured values reported in patent US20210355104A1, “ADENOSINE RECEPTOR BINDING COMPOUNDS” (Nikang Therapeuticsm Inc., priority 2018, published 2021).
Several values for one entry are separate records, joined by “and”; a condition that tells them apart may be missing. Identical values can stand only once.

What was measured:
Adenosine A2A receptor [1] = target: T1, Adenosine A2A receptor (Homo sapiens, UniProt P29274); assay: cAMP assay in 293A cells stably expressing the adenosine A2A receptor (CGS21680 stimulation, HTRF); format: cell-based; set-up: expressed in transfected cells; host or cells: 293A cells (Invitrogen, Cat# R705-07) infected with A2A-expressing lentivirus (custom packaged by Biosettia), puromycin selected; conditions: 293A-A2AR cells, 0.1% BSA, values separated by / are repeat determinations
T1 sequence (P29274 whole entry): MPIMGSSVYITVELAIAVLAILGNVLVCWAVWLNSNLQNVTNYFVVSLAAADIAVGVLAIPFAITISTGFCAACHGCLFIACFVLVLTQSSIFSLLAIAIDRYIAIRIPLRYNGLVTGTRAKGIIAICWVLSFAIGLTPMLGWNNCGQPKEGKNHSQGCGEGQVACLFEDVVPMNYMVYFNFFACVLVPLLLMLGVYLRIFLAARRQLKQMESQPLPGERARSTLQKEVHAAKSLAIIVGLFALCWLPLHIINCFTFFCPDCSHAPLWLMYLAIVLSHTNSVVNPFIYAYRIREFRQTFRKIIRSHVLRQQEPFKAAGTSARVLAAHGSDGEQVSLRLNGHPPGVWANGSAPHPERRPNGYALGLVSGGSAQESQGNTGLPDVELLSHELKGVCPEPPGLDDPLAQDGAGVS

Adenosine A2A receptor [2] = target: T1, Adenosine A2A receptor; assay: Adenosine A2A receptor competitive binding assay (Tag-lite HTRF); conditions: Tag-lite adenosine A2A receptor ligand binding, 2 h room temperature; values separated by / are repeat determinations
Method in brief: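 Tag-lite HTRF competition: donor-labelled cells expressing human A2A were mixed with serially diluted compounds (DMSO 0.6% in dilutions) and red fluorescent A2A antagonist ligand (60 nM stock). Incubated 2 h at room temperature before HTRF readout.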

[3] = 8 nM CGS, read-out: cAMP (nM) 0.1% BSA, 8 nM CGS
[4] = 1 uM CGS, read-out: cAMP (nM) 0.1% BSA, 1 uM CGS

| Compound | IC50 (Adenosine A2A receptor [1]; [3]) | IC50 (Adenosine A2A receptor [2]) | IC50 (Adenosine A2A receptor [1]; [4]) |
| --- | --- | --- | --- |
| CCOC(=O)NCCOc1nc(N)nc(-c2ccc(F)cc2)c1-c1cc(C)nc(C(F)F)c1 [Example 54, ethyl(2-((2-amino-5-(2-(difluoromethyl)-6-methylpyridin-4-yl)-6-(4-fluorophenyl)pyrimidin-4-yl)oxy)ethyl)carbamate] | 0.22 nM and 1.45 nM | 2.1 nM and 10 nM | – |
| Cc1cc(-c2c(OCCc3ccc(N4CCN(C)CC4)cc3)nc(N)nc2-c2ccc(F)cc2)cc(C(F)F)n1 [Example 57, 5-(2-(difluoromethyl)-6-methylpyridin-4-yl)-4-(4-fluorophenyl)-6-(4-(4-methylpiperazin-1-yl)phenethoxy)pyrimidin-2-amine] | 1.7 nM | 2 nM and 14 nM | – |
| Cc1cc(-c2c(OCCNS(N)(=O)=O)nc(N)nc2-c2ccc(F)cc2)cc(C(F)F)n1 [Example 59] | 2.2 nM and 1.3 nM | 1.8 nM and 7.8 nM | 663 nM and 394 nM |
| CCNC(=O)NCCOc1nc(N)nc(-c2ccc(F)cc2)c1-c1cc(C)nc(C(F)F)c1 [Example 60, 1-(2-((2-amino-5-(2-(difluoromethyl)-6-methylpyridin-4-yl)-6-(4-fluorophenyl)pyrimidin-4-yl)oxy)ethyl)-3-ethylurea] | 1.7 nM and 2.2 nM | 3.6 nM and 8.8 nM | – |
| Cc1cc(-c2c(OCC(C)(C)O)nc(N)nc2-c2ccc(F)cc2)cc(C(F)F)n1 [Example 62, 1-((2-amino-5-(2-(difluoromethyl)-6-methylpyridin-4-yl)-6-(4-fluorophenyl)pyrimidin-4-yl)oxy)-2-methylpropan-2-ol] | 15 nM | 15 nM | – |
| CCOC(=O)NCc1nc(N)nc(-c2ccccc2)c1-c1cc(C)nc(C(F)(F)F)c1 [Example 63, Ethyl((2-amino-5-(2-methyl-6-(trifluoromethyl)pyridin-4-yl)-6-phenylpyrimidin-4-yl)methyl)carbamate] | 8.3 nM | 37 nM | – |
| CCNC(=O)Nc1ccc(CCOc2nc(N)nc(-c3ccc(F)cc3)c2-c2cc(C)nc(C(F)F)c2)cc1 [Example 67, 1-(4-(2-((2-amino-5-(2-(difluoromethyl)-6-methylpyridin-4-yl)-6-(4-fluorophenyl)pyrimidin-4-yl)oxy)ethyl)phenyl)-3-ethylurea] | 4.7 nM | 27 nM | – |
| Cc1cc(-c2c(OCCc3ccc(C(C)(C)O)cc3)nc(N)nc2-c2ccc(F)cc2)cc(C(F)F)n1 [Example 68, 2-(4-(2-((2-amino-5-(2-(difluoromethyl)-6-methylpyridin-4-yl)-6-(4-fluorophenyl)pyrimidin-4-yl)oxy)ethyl)phenyl)propan-2-ol] | 2.7 nM | 22 nM | – |
| Cc1cc(-c2c(OCCc3ccc(NS(C)(=O)=O)cc3)nc(N)nc2-c2ccc(F)cc2)cc(C(F)F)n1 [Example 69, N-(4-(2-((2-amino-5-(2-(difluoromethyl)-6-methylpyridin-4-yl)-6-(4-fluorophenyl)pyrimidin-4-yl)oxy)ethyl)phenyl)methanesulfonamide] | 5.8 nM | 38 nM | – |
| Cc1cc(-c2c(OCCC(C)(C)C(=O)O)nc(N)nc2-c2ccc(F)cc2)cc(C(F)F)n1 [Example 70, 4-((2-amino-5-(2-(difluoromethyl)-6-methylpyridin-4-yl)-6-(4-fluorophenyl)pyrimidin-4-yl)oxy)-2,2-dimethylbutanoic acid] | – | 3.6 nM and 1 nM and 4 nM | 513 nM and 315 nM and 231 nM and 229 nM and 143 nM |
| Cc1cc(-c2c(O[C@H](C)CO)nc(N)nc2-c2ccc(F)cc2)cc(C(F)F)n1 [Example 73, (R)-2-((2-amino-5-(2-(difluoromethyl)-6-methylpyridin-4-yl)-6-(4-fluorophenyl)pyrimidin-4-yl)oxy)propan-1-ol] | 3.6 nM | 25 nM | – |
| Cc1cc(-c2c(OC[C@@H](C)O)nc(N)nc2-c2ccc(F)cc2)cc(C(F)F)n1 [Example 74, (R)-1-((2-amino-5-(2-(difluoromethyl)-6-methylpyridin-4-yl)-6-(4-fluorophenyl)pyrimidin-4-yl)oxy)propan-2-ol] | – | 8.4 nM and 15.7 nM | 693 nM |
| Cc1cc(-c2c(OCC3CNC3)nc(N)nc2-c2ccc(F)cc2)cc(C(F)F)n1 [Example 75, 4-(azetidin-3-ylmethoxy)-5-(2-(difluoromethyl)-6-methylpyridin-4-yl)-6-(4-fluorophenyl)pyrimidin-2-amine] | 89 nM | 201 nM | – |
| Cc1cc(-c2c(OCCCN3CCOCC3)nc(N)nc2-c2ccc(F)cc2)cc(C(F)F)n1 [Example 80, 5-(2-(difluoromethyl)-6-methylpyridin-4-yl)-4-(4-fluorophenyl)-6-(3-morpholinopropoxy)pyrimidin-2-amine] | 6.4 nM | 42 nM | – |

The next lines start with the values.

| IC50 (Adenosine A2A receptor [1]; [3]) | IC50 (Adenosine A2A receptor [2]) | IC50 (Adenosine A2A receptor [1]; [4]) | Compound |
| --- | --- | --- | --- |
| 3.6 nM | 8.9 nM | – | Cc1cc(-c2c(OCCN3CCN(c4ccc(S(C)(=O)=O)cc4)CC3)nc(N)nc2-c2ccc(F)cc2)cc(C(F)F)n1 [Example 56, 5-(2-(difluoromethyl)-6-methylpyridin-4-yl)-4-(4-fluorophenyl)-6-(2-(4-(4-(methylsulfonyl)phenyl)piperazin-1-yl)ethoxy)pyrimidin-2-amine] |
| 233 nM | 280 nM | – | Cc1cc(-c2c(OCC(C)(C)C(=O)O)nc(N)nc2-c2ccc(F)cc2)cc(C(F)F)n1 [Example 61, 3-((2-amino-5-(2-(difluoromethyl)-6-methylpyridin-4-yl)-6-(4-fluorophenyl)pyrimidin-4-yl)oxy)-2,2-dimethylpropanoic acid] |
| 1.6 nM | 42 nM | 1010 nM | CCNCCOc1nc(N)nc(-c2ccc(F)cc2)c1-c1cc(C)nc(C(F)F)c1 [Example 65, 5-(2-(difluoromethyl)-6-methylpyridin-4-yl)-4-(2-(ethylamino)ethoxy)-6-(4-fluorophenyl)pyrimidin-2-amine] |
| 337 nM | 95 nM | – | Cc1cc(-c2c(OCCc3ccc(OC4CCN(S(C)(=O)=O)C4)cc3)nc(N)nc2-c2ccc(F)cc2)cc(C(F)F)n1 (stereo not shown) [Example 66, 5-(2-(difluoromethyl)-6-methylpyridin-4-yl)-4-(4-fluorophenyl)-6-(4-((1-(methylsulfonyl)pyrrolidin-3-yl)oxy)phenethoxy)pyrimidin-2-amine] |
| > 1000 nM | > 1000 nM | – | Cc1cc(-c2c(OCC(=O)O)nc(N)nc2-c2ccc(F)cc2)cc(C(F)F)n1 [Example 71, 2-((2-amino-5-(2-(difluoromethyl)-6-methylpyridin-4-yl)-6-(4-fluorophenyl)pyrimidin-4-yl)oxy)acetic acid] |
| 3.2 nM | 19 nM | – | Cc1cc(-c2c(O[C@@H](C)CO)nc(N)nc2-c2ccc(F)cc2)cc(C(F)F)n1 [Example 76, (S)-2-((2-amino-5-(2-(difluoromethyl)-6-methylpyridin-4-yl)-6-(4-fluorophenyl)pyrimidin-4-yl)oxy)propan-1-ol] |
| – | 3.9 nM and 4.2 nM | 547 nM | Cc1cc(-c2c(OC[C@H](C)O)nc(N)nc2-c2ccc(F)cc2)cc(C(F)F)n1 [Example 77, (S)-1-((2-amino-5-(2-(difluoromethyl)-6-methylpyridin-4-yl)-6-(4-fluorophenyl)pyrimidin-4-yl)oxy)propan-2-ol] |
| 51 nM | 11 nM | – | Cc1cc(-c2c(CNC(=O)N(C)C)nc(N)nc2-c2ccc(F)cc2)cc(C(F)F)n1 [Example 78, 3-((2-amino-5-(2-(difluoromethyl)-6-methylpyridin-4-yl)-6-(4-fluorophenyl)pyrimidin-4-yl)methyl)-1,1-dimethylurea] |
